{
  "source": "ChEMBL document CHEMBL5137116",
  "about": "“Discovery of Cyclic Diarylheptanoids as Inhibitors against Influenza A Virus from the Roots of Casuarina equisetifolia” (J Nat Prod, 2022)",
  "key": {"Influenza A virus [1]": {"tested_on": "Influenza A virus", "test": "Antiviral activity against Influenza A virus A/WSN/33(H1N1) infected in HEK293T cells by Gaussia luciferase assay", "type": "functional, organism-based", "details": "HEK-293T"}, "[2]": {"test": "Cytotoxicity against dog MDCK cells by MTT assay", "type": "toxicity, cell-based, Canis lupus familiaris"}, "[3]": {"test": "Selectivity index, ratio of CC50 for cytotoxicity against dog MDCK cells to IC50 for antiviral activity against Influenza A virus A/WSN/33(H1N1) infected in HEK293T cells", "type": "toxicity, cell-based", "details": "read-out: Selectivity Index"}, "Influenza A virus [4]": {"tested_on": "Influenza A virus", "test": "Antiviral activity against Influenza A virus A/WSN/33(H1N1) infected in HEK293T cells assessed as inhibition of viral replication at 50 uM by Gaussia luciferase assay", "type": "functional", "details": "HEK-293T"}},
  "data": [
    {"smiles": "O=C1/C=C/CCc2ccc(O)c(c2)-c2cc(ccc2O)C[C@H]1O", "values": [
      {"measurement": "IC50", "setting": "Influenza A virus [1]", "result": 8.64, "unit": "µM"},
      {"measurement": "CC50 at 48 h", "setting": "[2]", "result": "> 100", "unit": "µM"},
      {"measurement": "selectivity ratio", "setting": "[3]", "result": "> 12"},
      {"measurement": "inhibition at 50 µM", "setting": "Influenza A virus [4]", "result": 60, "unit": "%"}
    ]}
  ]
}
